target: cGMP PDE5 (UniProt O76074); assay: Phosphodiesterase (PDE) inhibitory activity: in vitro inhibition of cGMP PDE5 (batch method or scintillation proximity assay); settings: in vitro activity as inhibitors of cGMP PDE5
Description: Phosphodiesterases 7-11 were generated from full length human recombinant clones transfected into SF9 cells.
In summary, the effect of PDE inhibitors was investigated by assaying a fixed amount of enzyme in the presence of varying inhibitor concentrations and low substrate, (cGMP or cAMP in a 3:1 ratio unlabelled to [^3H]-labeled at a conc ˜1/3 Km) such that IC50≅Ki. The final assay volume was made up to 100 μl with assay buffer [20 mM Tris-HCl pH 7.4, 5 mM MgCl2, 1 mg/ml bovine serum albumin].

SMILES	IC50 [nM]
CCCCOc1ncc(C(=O)N(C)OC)cc1-c1nc2c(CC)n(CCOC)nc2c(=O)[nH]1 [Example 5, 6-Butoxy-5-[3-ethyl-2-(2-methoxyethyl)-7-oxo-6,7-dihydro-2H-pyrazolo[4,3-d]pyrimidin-5-yl]-N-methoxy-N-methylnicotinamide]	8.5
CCCCOc1ncc(C(C)=O)cc1-c1nc2c(CC)n(CCOC)nc2c(=O)[nH]1 [Example 16, 5-(5-Acetyl-2-butoxy-3-pyridinyl)-3-ethyl-2-(2-methoxyethyl)-2,6-dihydro-7H-pyrazolo[4,3-d]pyrimidin-7-one]	6.55
CCCCOc1ncc(C(=O)CN2CCOCC2)cc1-c1nc2c(CC)n(CCOC)nc2c(=O)[nH]1 [Example 34, 5-[2-Butoxy-5-(4-morpholinylacetyl)-3-pyridinyl]-3-ethyl-2-(2-methoxyethyl)-2,6-dihydro-7H-pyrazolo[4,3-d]pyrimidin-7-one]	30.7
CCCCOc1ncc(C(C)=O)cc1-c1nc2c(CC)n(CCN3CCOCC3)nc2c(=O)[nH]1 [Example 48]	2.45
CCCCOc1ncc(C(C)=O)cc1-c1nc2c(CC)n(C3CCNCC3)nc2c(=O)[nH]1 [Example 49, 5-(5-Acetyl-2-butoxy-3-pyridinyl)-3-ethyl-2-(4-piperidinyl)-2,6-dihydro-7H-pyrazolo[4,3-d]pyrimidin-7-one]	18
CCOc1ncc(C(C)=O)cc1-c1nc2c(-c3ccc(N(C)C)nc3)n(C)nc2c(=O)[nH]1 [Example 59, 5-(5-Acetyl-2-ethoxy-3-pyridinyl)-3-[6-(dimethylamino)-3-pyridinyl]-2-methyl-2,6-dihydro-7H-pyrazolo[4,3-d]pyrimidin-7-one]	1.41

tested on: not given; assay: not given; settings: not given

SMILES	melting point [°C]
CCCOc1ncc(C#C[Si](C)(C)C)cc1-c1nc2c(CC)nn(CCN3CCOCC3)c2c(=O)[nH]1	132 to 134
CCCCOc1ncc(-c2ccco2)cc1-c1nc2c(CC)n(CCOC)nc2c(=O)[nH]1 [Example 12, 5-[2-Butoxy-5-(2-furyl)-3-pyridinyl]-3-ethyl-2-(2-methoxyethyl)-2,6-dihydro-7H-pyrazolo[4,3-d]pyrimidin-7-one]	154 to 155
CCCOc1ncc(C#N)cc1-c1nc2c(CCC)nn(C)c2c(=O)[nH]1 [Example 70, 5-(1-Methyl-7-oxo-3-propyl-6,7-dihydro-1-pyrazolo[4,3-d]pyrimidin-5-yl)-6-propoxynicotinonitrile]	174 to 176
CCCc1nn(C)c2c(=O)[nH]c(-c3cc([N+](=O)[O-])cnc3OC3CCC3)nc12 [Example 88, 5-[2-(Cyclobutyloxy)-5-nitro-3-pyridinyl]-1-methyl-3-propyl-1,6-dihydro-7H-pyrazolo[4,3-d]pyrimidin-7-one]	212 to 214
CCCc1nn(C)c2c(=O)[nH]c(-c3cc(NC(C)=O)cnc3OC3CCC3)nc12 [Example 89, N-[6-(Cyclobutyloxy)-5-(1-methyl-7-oxo-3-propyl-6,7-dihydro-1H-pyrazolo[4,3-d]pyrimidin-5-yl)-3-pyridinyl]acetamide]	279 to 281
CCCc1nn(C)c2c(=O)[nH]c(-c3cc(N)cnc3OC3CCC3)nc12 [Example 90, 5-[5-Amino-2-(cyclobutyloxy)-3-pyridinyl]-1-methyl-3-propyl-1,6-dihydro-7H-pyrazolo[4,3-d]pyrimidin-7-one]	185 to 185.5
CCCOc1ncc(NC(=O)N(C)C)cc1-c1nc2c(CCC)nn(C)c2c(=O)[nH]1 [Example 91, N′-[6-(Propoxy)-5-(1-methyl-7-oxo-3-propyl-6,7-dihydro-1H-pyrazolo[4,3-d]pyrimidin-5-yl)-3-pyridinyl]-N,N-dimethylurea]	219 to 220
CCCOc1ncc(NC(C)=O)cc1-c1nc2c(CCC)nn(C)c2c(=O)[nH]1 [Example 92, N-[6-(Propoxy)-5-(1-methyl-7-oxo-3-propyl-6,7-dihydro-1H-pyrazolo[4,3-d]pyrimidin-5-yl)-3-pyridinyl]acetamide]	252 to 253
CCCOc1ncc(N(C)C)cc1-c1nc2c(CCC)nn(C)c2c(=O)[nH]1 [Example 93, 5-[5-(Dimethylamino)-2-propoxy-3-pyridinyl]-1-methyl-3-propyl-1,6-dihydro-7H-pyrazolo[4,3-d]pyrimidin-7-one]	162 to 162.5
CCCOC(=O)Nc1cnc(OCCC)c(-c2nc3c(CCC)nn(C)c3c(=O)[nH]2)c1 [Example 94, Propyl 5-(1-Methyl-7-oxo-3-propyl-6,7-dihydro-1H-pyrazolo[4,3-d]pyrimidin-5-yl)-6-propoxy-3-pyridinylcarbamate]	210 to 211
CCCOc1ncc(I)cc1-c1nc2c(CC)nn(CCN3CCOCC3)c2c(=O)[nH]1 [Example 95, 3-Ethyl-5-(5-iodo-2-propoxy-3-pyridinyl)-1-[2-(4-morpholinyl)ethyl]-1,6-dihydro-7H-pyrazolo[4,3-d]pyrimidin-7-one]	175 to 177
CCCOc1ncc(I)cc1-c1nc2c(CC)n(Cc3ccccn3)nc2c(=O)[nH]1 [Example 98, 5-(2-Propoxy-5-iodo-3-pyridinyl)-3-ethyl-2-(2-pyridinylmethyl)-2,6-dihydro-7H-pyrazolo[4,3-d]pyrimidin-7-one]	228.9 to 233.8
C#Cc1cnc(OCCC)c(-c2nc3c(CC)nn(CCN4CCOCC4)c3c(=O)[nH]2)c1 [Example 107, 3-Ethyl-5-(5-ethynyl-2-propoxy-3-pyridinyl)-1-[2-(4-morpholinyl)ethyl]-1,6-dihydro-7H-pyrazolo[4,3-d]pyrimidin-7-one]	137 to 139
C#Cc1cnc(OCCC)c(-c2nc3c(CC)n(C4CCN(C(=O)OC(C)(C)C)CC4)nc3c(=O)[nH]2)c1 [Example 112, tert-Butyl 4-[3-Ethyl-5-(5-ethynyl-2-propoxy-3-pyridinyl)-7-oxo-6,7-dihydro-2H-pyrazolo[4,3-d]pyrimidin-2-yl]-1-piperidinecarboxylate]	221
CCCOc1ncc(C(C)=O)cc1-c1nc2c(CC)nn(CCN3CCOCC3)c2c(=O)[nH]1 [Example 113, 5-(5-Acetyl-2-propoxy-3-pyridinyl)-3-ethyl-1-[2-(4-morpholinyl)ethyl]-1,6-dihydro-7H-pyrazolo[4,3-d]pyrimidin-7-one]	140 to 143
CCCOc1ncc(C(C)=O)cc1-c1nc2c(CC)n(C3CNC3)nc2c(=O)[nH]1 [Example 117, 5-(5-Acetyl-2-propoxy-3-pyridinyl)-2-(3-azetidinyl)-3-ethyl-2,6-dihydro-7H-pyrazolo[4,3-d]pyrimidin-7-one]	128.5 to 130
CCCOc1ncc(C(C)=O)cc1-c1nc2c(CC)n(C3CN(C)C3)nc2c(=O)[nH]1 [Example 120, 5-(5-Acetyl-2-propoxy-3-pyridinyl)-3-ethyl-2-(1-methyl-3-azetidinyl)-2,6-dihydro-7H-pyrazolo[4,3-d]pyrimidin-7-one]	175.9 to 177
CCCOc1ncc(C(C)=O)cc1-c1nc2c(CC)n(C3CN(C(C)=O)C3)nc2c(=O)[nH]1 [Example 121, 2-(1-Acetyl-3-azetidinyl)-5-(5-acetyl-2-propoxy-3-pyridinyl)-3-ethyl-2,6-dihydro-7H-pyrazolo[4,3-d]pyrimidin-7-one]	229.3 to 230.1
CCCOc1ncc(C(C)=O)cc1-c1nc2c(CC)n(C3CCN(C(C)=O)CC3)nc2c(=O)[nH]1 [Example 122, 2-(1-acetyl-4-piperidinyl)-5-(5-acetyl-2-propoxy-3-pyridinyl)-3-ethyl-2,6-dihydro-7H-pyrazolo[4,3-d]pyrimidin-7-one]	213 to 214
CCCOc1ncc(C(C)=O)cc1-c1nc2c(CC)n(C3CN(C(C)CC)C3)nc2c(=O)[nH]1 (stereo not shown) [Example 123, 5-(5-Acetyl-2-propoxy-3-pyridinyl)-2-(1-sec-butyl-3-azetidinyl)-3-ethyl-2,6-dihydro-7H-pyrazolo[4,3-d]pyrimidin-7-one]	176.5 to 177.7
CCCOc1ncc(C(C)=O)cc1-c1nc2c(CC)n(C3CN(C(C)C)C3)nc2c(=O)[nH]1 [Example 124, 5-(5-Acetyl-2-propoxy-3-pyridinyl)-3-ethyl-2-(1-isopropyl-3-azetidinyl)-2,6-dihydro-7H-pyrazolo[4,3-d]pyrimidin-7-one]	162.8 to 163.6
CCCOc1ncc(C(C)=O)cc1-c1nc2c(CC)n(C3CCN(C)CC3)nc2c(=O)[nH]1 [Example 125, 5-(5-Acetyl-2-propoxy-3-pyridinyl)-3-ethyl-2-(1-methyl-4-piperidinyl)-2,6-dihydro-7H-pyrazolo[4,3-d]pyrimidin-7-one]	219 to 220
CCCCOc1ncc(C(C)=O)cc1-c1nc2c(CC)n(CC3CC3)nc2c(=O)[nH]1 [Example 127]	184 to 185
CCOc1ncc(C(C)=O)cc1-c1nc2c(CC)n(CC3CC3)nc2c(=O)[nH]1 [Example 128]	200 to 201
CCCCOc1ncc(C(C)=O)cc1-c1nc2c(CC)n(C3CCN(C(=O)OC(C)(C)C)CC3)nc2c(=O)[nH]1 [Example 129, tert-Butyl 4-[5-(5-Acetyl-2-butoxy-3-pyridinyl)-3-ethyl-7-oxo-6,7-dihydro-2H-pyrazolo[4,3-d]pyrimidin-2-yl]-1-piperidinecarboxylate]	194 to 195
CCCCOc1ncc(C(C)=O)cc1-c1nc2c(CC)n(C3CCN(C(C)=O)CC3)nc2c(=O)[nH]1 [Example 131, 5-(5-Acetyl-2-butoxy-3-pyridinyl)-2-(1-acetyl-4-piperidinyl)-3-ethyl-2,6-dihydro-7H-pyrazolo[4,3-d]pyrimidin-7-one]	156 to 157
CCc1c2nc(-c3cc(C(C)=O)cnc3OCC(C)C)[nH]c(=O)c2nn1C1CCN(C)CC1 [Example 135, 5-(5-Acetyl-2-isobutoxy-3-pyridinyl)-3-ethyl-2-(1-methyl-4-piperidinyl)-2,6-dihydro-7H-pyrazolo[4,3-d]pyrimidin-7-one]	195 to 196
CCOc1ncc(C(C)=O)cc1-c1nc2c(CC)nn(Cc3nccn3C)c2c(=O)[nH]1 [Example 138, 5-(5-Acetyl-2-ethoxy-3-pyridinyl)-3-ethyl-1-[(1-methyl-1H-imidazol-2-yl)methyl]-1,6-dihydro-7H -pyrazolo[4,3-d]pyrimidin-7-one]	217.9 to 218.7
